Molecular target: T1, Adenosine receptor A1 (Bos taurus, UniProt P28190)
T1 sequence (P28190 whole entry): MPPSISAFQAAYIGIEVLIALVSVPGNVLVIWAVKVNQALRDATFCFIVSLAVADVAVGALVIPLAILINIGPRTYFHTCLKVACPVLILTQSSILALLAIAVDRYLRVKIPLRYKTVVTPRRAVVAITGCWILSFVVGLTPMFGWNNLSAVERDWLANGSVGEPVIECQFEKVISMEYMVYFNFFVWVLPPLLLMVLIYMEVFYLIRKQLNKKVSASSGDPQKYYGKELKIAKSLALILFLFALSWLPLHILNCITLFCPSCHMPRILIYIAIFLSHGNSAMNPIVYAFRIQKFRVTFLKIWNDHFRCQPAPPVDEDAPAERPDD

SMILES	Ki
CC(=O)Oc1ccc(-c2nc3c([nH]2)c(=O)n(C)c(=O)n3C)cc1 [8-(4-Acetoxyphenyl)theophylline]	0.023 µM
CCCn1c(=O)[nH]c(=O)c2[nH]cnc21 [3-Propylxanthine (enprofylline)]	> 10 µM
Cn1c(=O)[nH]c2ncn(C)c2c1=O [1,7-dimethylxanthine]	> 10 µM
CC(O)Cn1cnc2c1c(=O)n(C)c(=O)n2C (stereo unspecified) [7-(2-Hydroxy-propyl)-1,3-dimethyl-3,7-dihydro-purine-2,6-dione(Proxyphylline)]	> 10 µM
O=c1[nH]c(=O)c2[nH]cnc2[nH]1 [NSC_1188]	> 10 µM
CC(C)Cn1c(=O)n(C)c(=O)c2[nH]cnc21 [1-methyl-3-(2-methylpropyl)-2,3,6,7-tetrahydro-1H-purine-2,6-dione]	2.5 µM
Cn1cnc2c1c(=O)[nH]c(=O)n2C [theobromine]	> 10 µM
Cn1c(=O)c2c(ncn2C)n(C)c1=O	> 10 µM
CC(=O)CCCCn1c(=O)c2c(ncn2C)n(C)c1=O [1-(5-Oxohexyl)theobromine (pentoxifylline)]	> 10 µM

Continued, values first:

Ki	SMILES
0.0032 µM	CCCn1c(=O)c2nc(-c3ccc(O)cc3)[nH]c2n(CCC)c1=O [8-(4-Hydroxy-phenyl)-1,3-dipropyl-3,9-dihydro-purine-2,6-dione]
> 10 µM	CCN(CC)CCn1cnc2c1c(=O)n(C)c(=O)n2C [NSC_28329]
0.0034 µM	Cn1c(=O)c2nc(-c3ccc(O)cc3)[nH]c2n(C)c1=O [8-(4-Hydroxy-phenyl)-1,3-dimethyl-3,7-dihydro-purine-2,6-dione]
> 10 µM	CC(O)Cn1c(=O)c2c(ncn2C)n(C)c1=O (stereo unspecified) [NSC_66120]
> 10 µM	Cn1c(=O)c2c(ncn2CCO)n(C)c1=O [BETA-HYDROXYETHYL THEOPHYLLINE]
> 10 µM	Cn1c(=O)c2c(ncn2C[C@H](O)CO)n(C)c1=O [Diprophylline]
0.0003 µM	CCCn1c(=O)c2[nH]c(-c3ccc(Cl)cc3N)nc2n(CCC)c1=O [NSC_92411]

— BindingDB's records for doi:10.1007/bf00572436 (1985)
